Laboratory results reported in patent publication US8410140B2, “Anesthetic methods and compositions” (The Regents of the University of Michigan, priority 2009, dated 2013).

Assays:
[1] = tested on: sciatic nerve block in rat; assay: PWL and inter-paw differential (IPD), perineural versus subcutaneous dexmedetomidine in sciatic nerve block (Example 3); assay type: in vivo
Description: The relative systemic versus peripheral perineural effects of dexmedetomidine were determined by observing the PWL for the blocked and unblocked (control) paw. The effect of sensory analgesia (as measured by the PWL) to the operative paw compared with the control paw was calculated and is reported as the inter-paw differential (IPD=100*[Operative PWL−Control PWL]/Control PWL).
Data are presented as mean±SEM.

[2] = tested on: sciatic nerve block in rat; assay: Paw withdrawal latency (PWL) to a heat stimulus after perineural sciatic nerve block, dexmedetomidine dose response (Example 2); assay type: in vivo; settings: operative paw, ropivacaine 0.5%, heat cut-off 15 seconds, n = 10
Description: Commercially available 0.75% ropivacaine solution was mixed with preservative free normal saline or dexmedetomidine to make final solutions. The control group received 0.5% ropivacaine alone. In the experimental groups, ropivacaine was mixed with dexmedetomidine to make solutions based on the individual rat's weight 24 hours prior to experimental testing. […] The pH of ropivacaine (5.69±0.05) was used as the standard to which all solutions were maintained.
Fifty male Sprague Dawley rats (caesarean-derived Sprague-Dawley) weighing 250-350 g were purchased from Charles River Laboratories (Wilmington, Mass.). Rats without any signs of neurobehavioral impairment were maintained for one week in 12:12 light-dark cycles with lights on from 6 a.m. to 6 p.m. For the three days prior to surgery and neurobehavioral monitoring, rats were conditioned to the paw withdrawal chambers for one hour per day. Each rat was placed in the same position of the six-chamber container during the conditioning and neurobehavioral testing. On each of the three days prior to testing, both paws of the rat were exposed to the heat stimulus as a portion of the conditioning process. The day before surgery and testing, five PWL baseline measurements were obtained on both the operative and control paws. The mean value of the five measures was recorded as the rat's baseline value.
The IITC Life Sciences Inc. Plantar Analgesia Meter (Series 8 Model 336T, IITC Life Science Inc., Woodland Hills, Calif.) was used to test paw withdrawal latency (PWL) (Hargreaves et al. (1988) Pain 32:77-88; herein incorporated by reference in its entirety). The analgesia meter used a test unit containing a heat source that radiated a light beam. An angled mirror on the test unit was used to locate the correct target on the paw. The meter was set with an active intensity of 40%, an idle intensity of 10%, and a cut-off time for the heat source of 15 seconds. The time to paw withdrawal from the heat stimulus comprised the PWL measure (reaction time was measured to 0.01 s). An acrylic six-chamber container was used to separate the rats that were placed on the glass (Model 400) heated base. In order to decrease the level of variance in PWL measurements, the temperature of the base was set to 30 degrees Celsius five minutes prior to and throughout each round of PWL testing (Ding et al. (1997) Neurosci. Methods 76:183-191; herein incorporated by reference in its entirety).
An investigator blinded to the drug condition carried out the sciatic nerve injections. Each rat was randomly assigned to one of the five drug conditions. The laboratory assistants responsible for drug preparation were blinded to the surgery, neurobehavioral monitoring, and PWL measures. Rats were anesthetized and maintained with 2.5% isoflurane. […] Following the dissection, the sciatic nerve was clearly identified at a point proximal its bifurcation. All rats received unilateral injections of 0.2 ml of drug into the perineural space below the clear fascia covering the nerve and proximal to the bifurcation of the sciatic nerve. Injections were made using a tuberculin syringe and a 30-gauge needle. The time of the injection was recorded and deemed the zero time point. A non-absorbable muscle fascia suture was placed at the midpoint of the injection site as a marker for subsequent nerve removal.

[3] = tested on: sciatic nerve block in rat; settings: high-dose dexmedetomidine alone or combined with approved concentrations of bupivacaine; cited from earlier work
[4] = drug(s) injected perineurally, saline subcutaneously, ropivacaine 0.5%, DEX 20.0 μg/kg, p<0.05

Structure (SMILES) | PWL scores of the operative paws, 30-90 min time points ([1]; dense blockade, cutoff threshold 15 s, ropivacaine 0.5%, DEX 20.0 μg/kg) [s] | time points with significant differences between the operative and control paws (PWL) [1, 4] [min] | Mean PWL values, 90 min ([2]; 90 min after 0.2 ml perineural sciatic injection) [s] | Mean PWL values, 120 min ([2]; 120 min after 0.2 ml perineural sciatic injection) [s] | Mean PWL values, 150 min ([2]; 150 min after 0.2 ml perineural sciatic injection) [s] | Mean PWL values, 180 min ([2]; 180 min after 0.2 ml perineural sciatic injection) [s] | Mean PWL values, 210 min ([2]; 210 min after 0.2 ml perineural sciatic injection) [s] | neurotoxicity [3] | sensory blockade of the operative paw ([1]; DEX 20.0 μg/kg alone, perineural) | inter-paw differential (IPD), relative effect ([1]; DEX 20.0 μg/kg alone, perineural, significantly different at 30 and 60 minutes (p=0.006 and 0.002)) | time points with significant differences between the operative and control paws (PWL) ([1]; DEX 20.0 μg/kg injected subcutaneously, perineural 0.5% ropivacaine or saline)
CCCN1CCCC[C@H]1C(=O)Nc1c(C)cccc1C [Ropivacaine, ropivacaine] | ~15 | 30 to 90 | 13.25 | 6.13 | 4.74 | 5.35 | 5.05 |  |  |  | 
Cc1cccc([C@H](C)c2cnc[nH]2)c1C [dexmedetomidine, Dexmedetomidine] |  | 60 |  |  |  |  |  | no neurotoxicity | brief, partial sensory blockade | greater than subcutaneous dexmedetomidine alone | affected both paws equally
